Measurements reported in patent US20080207616A1, “Quinoxalines as B Baf Inhhibitors” (AstraZeneca AB, priority 2004, published 2008).
pIC50: −log10 of the molar value.

Biological target: T1, human recombinant, purified wild type His-B-Raf protein kinase (Homo sapiens, UniProt P15056)
T1 construct: His
Test: B-Raf In Vitro ELISA Assay
Assay type: biochemical
Conditions: phosphorylation of MEK1; 2.5 nM B-Raf, 0.15 μM MEK1, 10 μM ATP; 1 hour preincubation at 25° C.
Experimental: B-Raf In Vitro ELISA Assay
Activity of human recombinant, purified wild type His-B-Raf protein kinase was determined in vitro using an enzyme-linked immunosorbent assay (ELISA) assay format, which measures phosphorylation of the B-Raf substrate, human recombinant, purified His-derived (detagged) MEK1. The reaction utilized 2.5 nM B-Raf, 0.15 μM MEK1 and 10 μM adenosine triphosphate (ATP) in 40 mM N-(2-Hydroxyethyl)piperazine-N′-(2-ethanesulfonic acid hemisodium salt (HEPES), […] 1,4-Dithio-DL-threitol (DTT), 10 mM MgCl2, 1 mM ethylenediaminetetraacetic acid (EDTA) and 0.2 M NaCl (1×HEPES buffer), with or without compound at various concentrations, in a total reaction volume of 25 μl in 384 well plates. B-Raf and compound were preincubated in 1×HEPES buffer for 1 hour at 25° C. Reactions were initiated with addition of MEK1 and ATP in 1× HEPES buffer and incubated at 25° C. for 50 minutes and reactions stopped by addition of 10 μl 75 mM EDTA (final concentration […]) in 1×HEPES buffer. 5 μl of the assay mix was then diluted 1:20 into 50 mM EDTA in 1×HEPES buffer, transferred to 384 well black high protein binding plates and incubated overnight at 4° C. […] Blue fluorescent product was detected at excitation 325 nm and emission 420 nm using a TECAN Ultra plate reader. Data was graphed and IC50s calculated using Excel Fit (Microsoft).

T1 sequence (P15056 whole entry): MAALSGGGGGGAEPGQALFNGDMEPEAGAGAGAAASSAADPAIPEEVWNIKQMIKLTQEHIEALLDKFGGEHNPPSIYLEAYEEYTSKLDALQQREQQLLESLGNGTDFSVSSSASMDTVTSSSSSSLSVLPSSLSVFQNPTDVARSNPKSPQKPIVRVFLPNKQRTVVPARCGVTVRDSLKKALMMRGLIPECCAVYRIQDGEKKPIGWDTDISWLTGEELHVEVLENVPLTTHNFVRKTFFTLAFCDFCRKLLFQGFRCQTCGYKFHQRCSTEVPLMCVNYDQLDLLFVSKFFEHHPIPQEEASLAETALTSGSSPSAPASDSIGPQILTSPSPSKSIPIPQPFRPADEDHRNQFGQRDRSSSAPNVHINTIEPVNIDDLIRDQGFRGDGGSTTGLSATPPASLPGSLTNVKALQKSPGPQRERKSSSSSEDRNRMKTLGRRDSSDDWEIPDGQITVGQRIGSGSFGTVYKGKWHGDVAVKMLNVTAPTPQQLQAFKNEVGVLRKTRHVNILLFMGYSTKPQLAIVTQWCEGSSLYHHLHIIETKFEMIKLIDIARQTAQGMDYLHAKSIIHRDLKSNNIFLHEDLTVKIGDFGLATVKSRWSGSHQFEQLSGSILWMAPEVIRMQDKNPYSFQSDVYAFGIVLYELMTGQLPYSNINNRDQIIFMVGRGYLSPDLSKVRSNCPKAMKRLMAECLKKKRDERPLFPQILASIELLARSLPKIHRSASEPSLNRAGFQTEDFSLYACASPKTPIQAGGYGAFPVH

| pIC50 | Structure (SMILES) |
| --- | --- |
| 7.70 | CCCOc1cccc(C(=O)Nc2ccc(C)c(NC(=O)c3ccc4nccnc4c3)c2)c1 [Example 12, N-{2-Methyl-5-[(3-propoxybenzoyl)amino]phenyl}quinoxaline-6-carboxamide] |
| 6.13 | CCc1cccc(C(=O)Nc2ccc(C)c(NC(=O)c3ccc4nccnc4c3)c2)c1 [Example 11, N-{5-[(3-Ethylbenzoyl)amino]-2-methylphenyl}quinoxaline-6-carboxamide] |
